Laboratory results published in ChEMBL document CHEMBL5236668, “Synthesis and biological evaluation of novel SN38-glucose conjugate for colorectal cancer treatment” (Bioorg Med Chem Lett, 2023).
In brackets after ≈: the same amount, converted by molar mass. Activity calls are given as the source filed them. No cut-off for these calls is given here.

Tests used:
[1] = Cytotoxicity against HEK293T cells assessed as inhibition of cell growth by MTT assay; assay type: toxicity, cell-based, HEK-293T; conditions: human
SW480 [2] = experiment: Antimigratory activity against human SW480 cells assessed as inhibition of cell migration by wound healing assay relative to control; assay type: functional; design: scale not given: the % may be the effect or the level left
SW480 [3] = experiment: Induction of apoptosis in human SW480 cells assessed as necrotic cells at 25 uM by Annexin V-FITC staining based flow cytometry (reference value: 3.05 %); assay type: functional
[4] = Solubility of the compound in 0.9% NaCl solution; assay type: physicochemical
HCT-116 [5] = experiment: Induction of apoptosis in human HCT-116 cells assessed as necrotic cells at 25 uM by Annexin V-FITC staining based flow cytometry (reference value: 0.73 %); assay type: functional
[6] = Toxicity in iv dosed nude mouse xenografted with human SW480 cells assessed as effect on body weight administered at 3 days intervals for 21 days; assay type: organism-based; conditions: in vivo, 504 h, time 21 day
SW480 [7] = experiment: Induction of apoptosis in human SW480 cells assessed as late apoptotic cells at 25 uM by Annexin V-FITC staining based flow cytometry (reference value: 5.12 %); assay type: functional
HCT-116 [8] = experiment: Induction of apoptosis in human HCT-116 cells assessed as early apoptotic cells at 25 uM by Annexin V-FITC staining based flow cytometry (reference value: 1.46 %); assay type: functional
HCT-116 [9] = experiment: Induction of apoptosis in human HCT-116 cells assessed as late apoptotic cells at 25 uM by Annexin V-FITC staining based flow cytometry (reference value: 3.51 %); assay type: functional
HCT-116 [10] = experiment: Anticancer activity against human HCT-116 cells assessed as inhibition of cell growth by MTT assay; assay type: functional, cell-based
[11] = Cytotoxicity against human L02 cells assessed as inhibition of cell growth by MTT assay; assay type: toxicity, cell-based
SW480 [12] = experiment: Anticancer activity against human SW480 cells assessed as inhibition of cell growth by MTT assay; assay type: functional, cell-based
HCT-116 [13] = experiment: Induction of apoptosis in human HCT-116 cells assessed as viable cells at 25 uM by Annexin V-FITC staining based flow cytometry (reference value: 94.3%); assay type: functional; conditions: read-out: Activity
SW480 [14] = experiment: Induction of apoptosis in human SW480 cells assessed as viable cells at 25 uM by Annexin V-FITC staining based flow cytometry (reference value: 89.3 %); assay type: functional; conditions: read-out: Activity
[15] = Solubility of the compound in water; assay type: physicochemical
SW480 [16] = experiment: Antitumor activity against human SW480 cells xenografted in mouse assessed as reduction in tumor growth at 0.008 to 0.016 mmol/Kg, iv administered at 3 days intervals for 21 days; assay type: functional, organism-based; conditions: dose 0.008-0.016 mmol/Kg, time 21.0 day
SW480 [17] = experiment: Inhibition of cell invasion in human SW480 cells by Boyden chamber invasion assay; assay type: functional, cell-based; conditions: dose 5-50 µM
[18] = Toxicity in nude mouse xenografted with human SW480 cells assessed as effect on PDW at 0.016 mmol/Kg, iv administered at 3 days intervals for 21 days by routine blood test; assay type: organism-based; conditions: in vivo, 504 h, time 21 day
[19] = Selectivity index, ratio of IC50 for cytotoxicity against human L02 cells to IC50 for anticancer activity against human HCT-116 cells; assay type: toxicity, cell-based; conditions: L02 cells and HCT-116 cells, read-out: Ratio IC50
[20] = Toxicity in nude mouse xenografted with human SW480 cells assessed as effect on cholesterol level at 0.016 mmol/Kg, iv administered at 3 days intervals for 21 days; assay type: organism-based; conditions: in vivo, 504 h, time 21 day
SW480 [21] = experiment: Antitumor activity against human SW480 cells xenografted in mouse assessed as reduction in tumor weight at 0.008 to 0.016 mmol/Kg, iv administered at 3 days intervals for 21 days; assay type: functional, organism-based; conditions: dose 0.008-0.016 mmol/Kg, time 21.0 day
[22] = Selectivity index, ratio of IC50 for cytotoxicity against human L02 cells to IC50 for anticancer activity against human SW480 cells; assay type: toxicity, cell-based; conditions: L02 cells and SW480 cells, read-out: Ratio IC50
[23] = Toxicity in nude mouse xenografted with human SW480 cells assessed as effect on blood urea nitrogen level at 0.016 mmol/Kg, iv administered at 3 days intervals for 21 days; assay type: organism-based; conditions: in vivo, 504 h, time 21 day
[24] = Toxicity in nude mouse xenografted with human SW480 cells assessed as effect on MCV level at 0.016 mmol/Kg, iv administered at 3 days intervals for 21 days by routine blood test; assay type: organism-based; conditions: in vivo, 504 h, time 21 day
[25] = Toxicity in nude mouse xenografted with human SW480 cells assessed as effect on MCH level at 0.016 mmol/Kg, iv administered at 3 days intervals for 21 days by routine blood test; assay type: organism-based; conditions: in vivo, 504 h, time 21 day
HCT-116 [26] = experiment: Induction of apoptosis in human HCT-116 cells assessed as appearance of wrinkled and round cells by Hoechst 33258 staining based analysis; assay type: functional, cell-based
SW480 [27] = experiment: Antitumor activity against human SW480 cells xenografted in iv dosed mouse assessed as reduction in tumor volume administered at 3 days intervals for 21 days; assay type: functional, organism-based; conditions: dose 0.008-0.016 mmol/Kg, time 21.0 day
[28] = Toxicity in nude mouse xenografted with human SW480 cells assessed as effect on WBC level at 0.016 mmol/Kg, iv administered at 3 days intervals for 21 days by routine blood test; assay type: organism-based; conditions: in vivo, 504 h, time 21 day
HCT-116 [29] = experiment: Inhibition of cell invasion in human HCT-116 cells by Boyden chamber invasion assay; assay type: functional, cell-based; conditions: dose 5-50 µM
SW480 [30] = experiment: Induction of apoptosis in human SW480 cells assessed as early apoptotic cells at 25 uM by Annexin V-FITC staining based flow cytometry (reference value: 2.53 %); assay type: functional
[31] = Toxicity in nude mouse xenografted with human SW480 cells assessed as effect on body weight at 0.008 to 0.016 mmol/Kg, iv administered at 3 days intervals for 21 days; assay type: organism-based; conditions: in vivo, 504 h, dose 0.008-0.016 mmol/Kg, time 21 day
[32] = Selectivity index, ratio of IC50 for cytotoxicity against HEK293T cells to IC50 for anticancer activity against human HCT-116 cells; assay type: toxicity, cell-based; conditions: HEK293T cells and HCT-116 cells, read-out: Ratio IC50
HCT-116 [33] = experiment: Induction of apoptosis in human HCT-116 cells assessed as appearance of paired apoptotic vesicles around the nucleus by Hoechst 33258 staining based analysis; assay type: functional, cell-based
[34] = Toxicity in nude mouse xenografted with human SW480 cells assessed as effect on hemoglobin level at 0.016 mmol/Kg, iv administered at 3 days intervals for 21 days by routine blood test; assay type: organism-based; conditions: in vivo, 504 h, time 21 day
SW480 [35] = experiment: Induction of apoptosis in human SW480 cells assessed as appearance of wrinkled and round cells by Hoechst 33258 staining based analysis; assay type: functional, cell-based
[36] = Toxicity in nude mouse xenografted with human SW480 cells assessed as effect on creatinine level at 0.016 mmol/Kg, iv administered at 3 days intervals for 21 days; assay type: organism-based; conditions: in vivo, 504 h, time 21 day
SW480 [37] = experiment: Induction of apoptosis in human SW480 cells assessed as appearance of paired apoptotic vesicles around the nucleus by Hoechst 33258 staining based analysis; assay type: functional, cell-based
[38] = Selectivity index, ratio of IC50 for cytotoxicity against HEK293T cells to IC50 for anticancer activity against human SW480 cells; assay type: toxicity, cell-based; conditions: HEK293T cells and SW480 cells, read-out: Ratio IC50
HCT-116 [39] = experiment: Induction of apoptosis in human HCT-116 cells assessed as blue chromatin condensation by Hoechst 33258 staining based analysis; assay type: functional, cell-based
[40] = Toxicity in nude mouse xenografted with human SW480 cells assessed as effect on alanine transaminase level at 0.016 mmol/Kg, iv administered at 3 days intervals for 21 days; assay type: organism-based; conditions: in vivo, 504 h, time 21 day
[41] = Toxicity in nude mouse xenografted with human SW480 cells assessed as effect on total protein level at 0.016 mmol/Kg, iv administered at 3 days intervals for 21 days; assay type: organism-based; conditions: in vivo, 504 h, time 21 day
SW480 [42] = experiment: Induction of apoptosis in human SW480 cells assessed as blue chromatin condensation by Hoechst 33258 staining based analysis; assay type: functional, cell-based
[43] = Toxicity in nude mouse xenografted with human SW480 cells assessed as effect on RBC level at 0.016 mmol/Kg, iv administered at 3 days intervals for 21 days by routine blood test; assay type: organism-based, Erythrocyte; conditions: in vivo, 504 h, time 21 day
HCT-116 [44] = experiment: Antimigratory activity against human HCT-116 cells assessed as inhibition of cell migration by wound healing assay relative to control; assay type: functional; design: scale not given: the % may be the effect or the level left
[45] = Toxicity in nude mouse xenografted with human SW480 cells assessed as effect on albumin level at 0.016 mmol/Kg, iv administered at 3 days intervals for 21 days; assay type: organism-based; conditions: in vivo, 504 h, time 21 day
[46] = Solubility of the compound in Tween 80 solution; assay type: physicochemical

`CCc1c2c(nc3ccc(OC(=O)N4CCC(N5CCCCC5)CC4)cc13)-c1cc3c(c(=O)n1C2)COC(=O)[C@]3(O)CC` [IRINOTECAN] gave an IC50 [1] of 19.8 µM, an Activity (SW480 [2]) of 74.5% and an Activity (SW480 [3]) of 0.871%. The solubility [4] was 1200 µg/mL (≈ 2050 µM), the Activity (HCT-116 [5]) was 0.256% and the Activity [6] was “Non-Toxic”. For the same molecule, the Activity (SW480 [7]) was 10.7%, the Activity (HCT-116 [8]) was 1.51% and the Activity (HCT-116 [9]) was 6.15%. The IC50 (HCT-116 [10]) was 14.2 µM, the IC50 [11] was 22.2 µM and the IC50 (SW480 [12]) was 11.2 µM. It also gave a viability at 25 µM (HCT-116 [13]) of 92.5%, a viability at 25 µM (SW480 [14]) of 85% and a solubility [15] of 5590 µg/mL (≈ 9530 µM).

With `CCc1c2c(nc3ccc(OC(=O)NCCOCc4cn(CCO[C@H]5O[C@@H](CO)[C@H](O)[C@@H](O)[C@@H]5O)nn4)cc13)-c1cc3c(c(=O)n1C2)COC(=O)[C@]3(O)CC` the IC50 [1] was 19.8 µM, the Activity (SW480 [2]) was 26.7% and the Activity (SW480 [16]) was “Active”. For the same molecule, the Activity (SW480 [3]) was 5.33%, the inhibition (SW480 [17]) was “Dose-Dependent Effect” and the Activity (HCT-116 [5]) was 2.2%. The Activity [18] was “Non-Toxic”, the selectivity ratio [19] was 5.7 and the Activity (SW480 [7]) was 38.7%. For the same molecule, the Activity [20] was “Non-Toxic”, the Activity (SW480 [21]) was “Active” and the selectivity ratio [22] was 9.62. For the same molecule, the Activity (HCT-116 [8]) was 3.67%, the Activity [23] was “Non-Toxic” and the Activity [24] was “Non-Toxic”. For the same molecule, the Activity [25] was “Non-Toxic”, the Activity (HCT-116 [26]) was “Active” and the Activity (HCT-116 [9]) was 14.1%. The Activity (SW480 [27]) was “Dose-Dependent Effect”, the IC50 (HCT-116 [10]) was 0.27 µM and the Activity [28] was “Non-Toxic”. The IC50 [11] was 1.54 µM, the inhibition (HCT-116 [29]) was “Dose-Dependent Effect” and the Activity (SW480 [30]) was 6%. The Activity [31] was “Non-Toxic”, the selectivity ratio [32] was 73.5 and the Activity (HCT-116 [33]) was “Active”. For the same molecule, the Activity [34] was “Non-Toxic”, the Activity (SW480 [35]) was “Active” and the Activity [36] was “Non-Toxic”. For the same molecule, the Activity (SW480 [37]) was “Active”, the selectivity ratio [38] was 124 and the Activity (HCT-116 [39]) was “Active”. The Activity [40] was “Non-Toxic”, the Activity [41] was “Non-Toxic” and the Activity (SW480 [42]) was “Active”. For the same molecule, the IC50 (SW480 [12]) was 0.16 µM, the viability at 25 µM (HCT-116 [13]) was 80.1% and the viability at 25 µM (SW480 [14]) was 50%. The Activity [43] was “Non-Toxic”, the Activity (HCT-116 [44]) was 20.1% and the solubility [15] was 2530 µg/mL (≈ 3300 µM). The Activity [45] was “Non-Toxic”.

`CCc1c2c(nc3ccc(O)cc13)-c1cc3c(c(=O)n1C2)COC(=O)[C@]3(O)CC` [7-ETHYL-10-HYDROXYCAMPTOTHECIN] showed a solubility [4] of 17.6 µg/mL (≈ 45 µM), a solubility [46] of 77.4 µg/mL (≈ 197 µM) and a solubility [15] of 7.74 µg/mL (≈ 19.7 µM).
